Results reported in ChEMBL document CHEMBL1148052, “Cylindrene, a novel sesquiterpenoid from Imperata cylindrica with inhibitory activity on contractions of vascular smooth muscle” (1994).
Active and inactive are the calls of the source. The rule behind the calls is not given here.

Tests used:
Aorta [1] = assay: Inhibition of KCl-induced contraction in rabbit aorta at 300 uM; format: functional; details: Oryctolagus cuniculus
Aorta [2] = assay: Inhibition of KCl-induced contraction in rabbit aorta at 100 nM; format: functional, tissue-based; details: Oryctolagus cuniculus

## CC(=O)c1cc(C(C)C)c2c(c1)C(C)(O)CC2 (configuration not stated) [CYLINDRENE]
Aorta [1]
  inhibition at 300 µM: 40%

## NC[C@H](O)c1ccc(O)c(O)c1
Aorta [2]
  Activity: inactive
